Here are results for 5 substances from US7741274B2, “Casein derived peptides and uses thereof in therapy” (priority 2000, dated 2010).

Assay [1] has as its system Non-Obese Diabetic (NOD) mice. Kind of assay: Intraperitoneal Glucose Tolerance Test (IPGTT) in NOD mice. It is filed as in vivo, mouse. On the set-up: IPGT TEST 0 min. (pre-load), plasma glucose: unit not given here. The conditions noted are these: for IPGT test result (in words): healthy NOD mice after 25 weeks; for IPGT TEST 0 min. (pre-load), plasma glucose: individual healthy NOD mice, 25 weeks after peptides. As for the experimental part:
Intraperitoneal Glucose Tolerance Test (IPGTT):
The glucose tolerance test is the definitive method for investigating glucose metabolism and diabetic tendencies in mammals. Twenty five (25) weeks after receiving Synthetic peptides derived from casein, response to a glucose load was assessed with an intraperitoneal glucose tolerance test. Glucose injection consisted of 1 g/kg body weight. Glycemic values were determined from blood drawn prior to test (0 minutes) and 60 minutes after loading.

For assay [2], the system named is female C57B1/6j mice fed an atherogenic diet. Put plainly: Diet-induced hypercholesterol/hyperlipidemia in C57B1/6j mice. It is filed as in vivo. The conditions noted are these: one week post 1 mg per mouse i.p.; diet control 52. The protocol: The ability of synthetic casein derived peptides to reduce cholesterol levels in 7-week old female C57B1/6j mice was assessed after feeding an atherogenic diet. The mice were divided into groups of 8. One control group was fed a normal diet. A second control group was fed the modified Thomas Hartroft diet containing cholate (#TD 88051: Teklad, Madison, Wis.) [Gerber, D. W. et al. (2000), Journal of Lipid Research. 42, 2001]. The remaining experimental groups were all fed the modified Thomas Hartroft diet.
Cholesterol blood levels were determined according to Roche Cholesterol Assay based on Roeschlou & Allin enzymatic method (Roche, Inc., Germany).

Assay [3] deals with Non-Obese Diabetic (NOD) mice. Kind of assay: Prevention of glucosuria / Juvenile (Type I, IDDM) Diabetes in NOD mice. It is filed as in vivo, mouse. Conditions: for prevention of glucosuria (in words) / Healthy/Total* (healthy and well = sugar not detected in urine): 100 μg once weekly for 5 weeks, evaluated after 25 weeks; for Healthy/Total* (healthy and well = sugar not detected in urine): female NOD mice. The protocol: Juvenile (Type I, IDDM) Diabetes in Non-Obese Diabetic (NOD) Mice:
Peptides Derived from Natural Casein:
NOD mice are a commonly used model for research of autoimmune disease and human Juvenile Diabetes. Six week old female NOD mice received either one or two injections per week of 100 μg of peptides derived from natural casein, for a total of 5 or 11 treatments. Control mice received no treatment. The severity of disease was determined according to glucosuria, which was measured using Combi test sticks [Gross, D. J. et al. (1994), Diabetology, 37:1195]. Results were expressed as the percent of glucosuria-free mice in each sample over a 365-day period.
Synthetic Peptides Derived from Casein:
In another experiment, 6 week old female NOD mice received one injection per week of 100 μg of Synthetic peptides derived from casein for a total of 5 treatments. Control mice received no treatment. Results were expressed as the number of healthy mice in the various treated groups.

The test system of assay [4] is murine primary bone marrow cells. Kind of assay: Multipotential colonies (CFU-GEMM) from murine bone marrow cells, colony and differential counts. The assay is classed as cell-based, mouse. Conditions: for megakaryocyte formation and development: 8 days treatment. The protocol: Stimulation of Hematopoiesis from Bone Marrow (BM) Cells in Culture:
Proliferation of megakaryocytes in multipotential colonies (CFU-GEMM) from murine Bone Marrow cells: Primary bone marrow cells (1×10^5 per ml) from 8-12 week-old C3H/HeJ mice were grown in serum-free methyl cellulose-IMDM medium for 8-9 days at 5% CO2, 95% air, at 37° C. The medium, appropriate for the growth of multipotential colonies (CFU-GEMM), contained 1% BSA (Sigma), 10^−4 M thioglycerol (Sigma), 2.8×10^−4 M human transferrin (TF, Biological industries, Israel), 10% WEHI-CM as a source of IL-3 and 2 units per ml erythropoietin (rhEPO, R & D Systems, Minneapolis). Colonies were scored after 8-9 days using an Olympus dark field microscope. They were picked with a micropipette, cytocentrifuged and stained with May-Grunwald-Giemsa for differential counts. At least 700 cells were counted for each preparation. […]
Proliferation of Macrophage cells in CFU-GEMM: Multipotent (CFU-GEMM colonies grown from primary bone marrow cells as described for the assay of megakaryocyte proliferation above were collected, stained and counted for macrophage cells. At least 700 cells were counted for each preparation.
Proliferation of Red Blood Cells in CFU-GEMM: Multipotent (CFU-GEMM) colonies grown from primary bone marrow cells as described for the assay of megakaryocyte proliferation above were collected, stained and counted for red blood cells. At least 700 cells were counted for each preparation. […]

For assay [5], the system named is human Peripheral Blood Stem Cells (PBSC). Put plainly: Natural Killer (NK) cell activity in cultured human PBSC (lysis of K562 target cells). It is filed as cell-based. The protocol: Stimulation of Proliferation of Natural Killer (NK) Cells:
From human Peripheral Blood Stem Cells (PBSC): PBSC of G-CSF treated subjects were separated on a FICOLL gradient, washed twice with RPMI-1640 medium and seeded into 1.5 ml wells with or without peptides derived from natural casein or synthetic peptides derived from casein, as indicated, (0-500 μg per ml). Following two days incubation the cells were assayed for Natural Killer activity by measuring radioactivity released from ^35S-labeled K562 target cells (NEG-7Q9A, 185.00 MBq, 2.00 mCi EASYTAGth Methionine, L-[^35S] 43.48 TBq per mmol, 1175.0 Ci per mmol, 0.488 ml, Boston USA). Two concentrations of effector cells ([…] cells per well) were incubated with 5×10^3 target cells per well (effector:target cell ratios of 50:1 and 100:1, respectively) in U-bottomed 96 well tissue culture plates. The cells were incubated for 5 hours at 37° C. in 5% CO2, 95% air and precipitated by 5 minutes centrifugation at 1000 rpm. ^35S release was measured in 50 μl samples of the supernatant liquid.

The test system of assay [6] is HIV-1IIIB. Kind of assay: Inhibition of HIV-1 infection of CEM lymphocytes (cell counts, P24 antigen assay). It is filed as cell-based. Conditions: for lymphocyte cell numbers / resistance of CEM cells to HIV-1 infection (in words) / cell counts: 3 hours pretreatment; for lymphocyte cell numbers / cell counts: infected control 1.06×10^6; for HIV-1 infection level, P24 antigen: 7 days post infection. As for the experimental part:
(§1) Inhibition of in vitro HIV infection of human lymphocyte cells:
(§2) Peptides: Peptides (either peptides derived from natural casein or synthetic peptides derived from casein (1-25 amino acids in length, see table 3) supplied as lyophilized powder were resuspended in RPMI complete medium and added to cell cultures at a final concentrations of 50 to 1000 μg per ml.
Cells: Several types of freshly isolated human cells (primary cells) and cell lines are known to be susceptible to in vitro HIV-1 infection, although essentially any cell displaying even low surface levels of the CD4 molecule can be considered a potential target for HIV-1 infection. Two commonly used human cell lines which are highly sensitive for HIV-1 infection were chosen, CEM and Sup-T1.
CEM is a human T4-lymphoblastoid cell line initially derived by G. E. Foley et al. [(1965), Cancer 18:522] from peripheral blood buffy coat of a person with acute lymphoblastic leukemia. These cells were continuously maintained in suspension in medium, and have been used widely for analysis of infectivity, antiviral agents and neutralizing antibodies.
Virus: The HIV virus strain employed was HIV-1IIIB, originally designated HTLV-IIIB. Concentrated culture fluids of peripheral blood from several patients with AIDS or related diseases were used to establish a permanent productive infection in H-9 cells. This subtype B virus has high capacity to replicate in human T-cell lines. Viral titer was 5.38 ng per ml in stock solution.
HIV-1 P24 antigen capture assay: An HIV-1 P24 Antigen capture assay kit employed was designed to quantitate the HIV-1 P24 core antigen, which is proportionally related to the degree of viral production in cells. This kit was purchased from the AIDS Vaccine program of the SAIC-NCI-Frederick Cancer Research Institute, P.O. Box B, Frederick, Md. 21702, USA and included 96 well plates coated with monoclonal antibody to HIV-1 P24, primary antibody-rabbit anti-HIV P24 serum, secondary antibody-Goat anti-rabbit-IgG (H+ L) peroxidase conjugated antibody, TMB peroxidase substrate system and lysed HIV-1 P24 standard. The HIV-1 P24 antigen capture assay was analyzed by Organon-Technica ELISA reader at 450 nm with a reference at 650 nm.
HIV-1 P24 antigen capture ELISA: HIV infection was measured with an indirect enzyme immunoassay which detects HIV-1 P24 core antigens in tissue culture media. Tissue culture supernatant was reacted with primary rabbit anti-HIV-1 P24 antigen and visualized by peroxidase conjugated goat anti rabbit IgG. The reaction was terminated by adding 4N H2SO4, wherein the intensity of the color developed is proportional to the amount of HIV-1 antigen present in the tissue culture supernatant.
HIV infection of human cultured CD4+ cells: The cells (CEM, Sup-T1) were preincubated with several increasing concentrations of peptides derived from natural casein (50-1000 μg per ml) or synthetic peptides derived from casein (10-500 μg per ml) for 3, 24 (for synthetic and natural peptides) and 48 (only for natural peptides) hours and HIV-1IIIB (45 μg per ml final concentration) was added to each well thereafter. HIV-1IIIB was preincubated with the peptides for 3 hours and then added to cells (5000 cells/well) in tissue culture plates. Controls were IF (Infected, cells cultured with HIV-1 and without peptides), UIF (Uninfected, cells cultured without HIV-1 and without peptides) and UIF+Ch (Uninfected+peptides derived from natural casein, cells cultured in the presence of peptides derived from natural casein {50-1000 μg per ml}) to test the effect of peptides derived from natural casein and synthetic peptides derived from casein on cell viability and growth. Cells were counted for viability and proliferation rate on day 7, 10 and day 14 post infection (the day of P24 antigen culture supernatant harvest). Cells and tissue culture supernatants (media) were harvested and lysed immediately in 1/10 volume of 10% Triton X-100. […]

For assay [7], the system named is human bone marrow cells. Kind of assay: Colony assays of human bone marrow cells (CFU-GM, erythroid, megakaryocyte, CFU-GEMM). It is filed as cell-based. Conditions: TPO-treated cells without peptides.
Protocol: Proliferation of megakaryocyte- and erythroid forming cells from human bone marrow and cord blood cells: A sample of bone marrow from an apparently healthy human being was processed by density gradient separation using Histopaque-107 (Sigma Diagnostics) to obtain a purified population of mononuclear cells (MNC). […]
Colony assay medium containing 10^5 MNC per ml was plated in triplicate wells within a 24 well tissue culture plate (Greiner), 0.33 ml per well. […] Plates were scored after 14 days for colonies containing more than 50 cells. […]
Megakaryocytopoiesis was measured in normal bone marrow cells from healthy consenting human donors by either scoring of the number of megakaryocytes in samples of liquid culture (RPMI-1640 plus 10% human AB serum, glutamine and antibiotics) with or without 100 μg per ml peptides derived from natural casein, or in a methylcellulose assay for assessing colony formation. […] In the methylcellulose assay megakaryocytes were counted with an inverted microscope on days 12-14 after seeding.
For assay [8], the system named is HIV-1IIIB. Kind of assay: Inhibition of HIV-1 infection of Sup-T1 cells. The assay is classed as cell-based. The protocol: as §1, §2
Cells: Several types of freshly isolated human cells (primary cells) and cell lines are known to be susceptible to in vitro HIV-1 infection, although essentially any cell displaying even low surface levels of the CD4 molecule can be considered a potential target for HIV-1 infection. Two commonly used human cell lines which are highly sensitive for HIV-1 infection were chosen, CEM and Sup-T1. […]
HIV-1 P24 antigen capture assay: An HIV-1 P24 Antigen capture assay kit employed was designed to quantitate the HIV-1 P24 core antigen, which is proportionally related to the degree of viral production in cells. […] The HIV-1 P24 antigen capture assay was analyzed by Organon-Technica ELISA reader at 450 nm with a reference at 650 nm.
HIV-1 P24 antigen capture ELISA: HIV infection was measured with an indirect enzyme immunoassay which detects HIV-1 P24 core antigens in tissue culture media. […]

Regarding RPKHPIKHQGL [2a], in assay [1], the “IPGT test result (in words)” value is given as “The other two mice remained within normal glycemic range” and the “IPGT TEST 0 min. (pre-load), plasma glucose” value came out at 95. Further, in assay [2], the HDL was 40 mg/dL. Besides, in assay [3], the “prevention of glucosuria (in words)” value is given as “highly effective”; the “Healthy/Total* (healthy and well = sugar not detected in urine)” value was 4/5. Further, in assay [4], the “megakaryocyte formation and development” value is “significant increase”.
As to RPK [1P], the “effect on NK activity in PBSC cultures from healthy human donors” value in assay [5] is “No significant effect”. Besides, the results for the “patients (of 5 tested) responding” value in assay [5] (25 μg/ml peptide concentration), in assay [5] (100 μg/ml peptide concentration) and in assay [5] (250 μg/ml peptide concentration) were 3, 1 and 1, respectively. Further, in assay [3] (assayed at week 16, untreated controls 100% glucosuria, data not shown), the onset of glucosuria result is listed as “effectively prevented”. In addition, the lymphocyte cell numbers in assay [6] (100 μg per ml) was 1.29 ×10^6; in assay [6] (500 μg per ml), 2.01 ×10^6. In addition, the “HIV-1 infection level, P24 antigen” value in assay [6] (100 μg/ml, untreated control 0.52) was 0.17 ng P24 Antigen/ml; in assay [6] (500 μg/ml, untreated control 0.52), 0.14 ng P24 Antigen/ml. The “resistance of CEM cells to HIV-1 infection (in words)” value in assay [6] was “significant degree of resistance to infection”.
For the substance “TPO: thrombopoietin, hematopoietic growth factor that stimulates megakaryocyte colony formation”, the “megakaryocyte (MK) colonies” value in assay [7] came out at 16 colonies per 2×10^5 cells.
RPKHP [3P]: the HDL in assay [2] came to 41 mg/dL. In addition, the “megakaryocyte formation and development” value in assay [4] was “significant increase”. Besides, the cell counts in assay [6] (10 μg per ml) is listed as 1.17 ×10^6; in assay [6] (25 μg per ml), 1.26 ×10^6. Also, the “HIV-1 infection level, P24 antigen” value in assay [6] (10 μg per ml, control 0.52) stood at 0.26 ng P24 Ag per ml; in assay [6] (25 μg per ml, control 0.52), 0.18 ng P24 Ag per ml. For the same substance, the “resistance of CEM cells to HIV-1 infection (in words)” value in assay [6] was “significant inhibition of HIV-1 infection”.
In the case of RPKHPIKHQ [X], in assay [1], the “IPGT test result (in words)” value was “no evidence of abnormal glucose metabolism” and the “IPGT TEST 0 min. (pre-load), plasma glucose” value is 94. In assay [3], the “prevention of glucosuria (in words)” value is listed as “highly effective”; the “Healthy/Total* (healthy and well = sugar not detected in urine)” value is given as 3/5. Besides, the “macrophages, % of total cell count” value in assay [4] (approximately 17% in unincubated controls) is around 30%. Further, in assay [8] (250 μg), the “increase in lymphocyte cell number in infected cells” value came out at 80%. In assay [8] (500 μg per ml), the “increase in lymphocyte cell number in infected cells” value is 33%.
